# Results: patent US12371454B2, “Cyclic peptide compound having Kras inhibitory action” (priority 2019, dated 2025)
# Starred links: 1 amine or outer side, 2 acyl side, 3 side chain; linkers in the order of their positions; H or OH if unused. Positions of bridges follow the written chain, without caps; N, C: chain ends. Non-standard residues stand in square brackets, D forms with d. Residues, ends and D or L forms follow the SMILES beside them. *: point of attachment. hPhe(3-Cl-4-CF3) = N[C@@H](CCc1ccc(C(F)(F)F)c(Cl)c1)C(=O)O; NMeDab(N,N-(CH2CF2CH2)) = CN[C@@H](CCN1CC(F)(F)C1)C(=O)O; hPhe(3-F,4-CF3) = N[C@@H](CCc1ccc(C(F)(F)F)c(F)c1)C(=O)O; NMePhe(4-CF3) = CN[C@@H](Cc1ccc(C(F)(F)F)cc1)C(=O)O; NMePhe(4-Me) = CN[C@@H](Cc1ccc(C)cc1)C(=O)O; NMedβ3hAla = C[C@H](CC(=O)[*:2])N(C)[*:1]; Abu(4,4,4-F3) = N[C@@H](CC(F)(F)F)C(=O)O; NMeGly(cPent) = CN[C@H](C(=O)O)C1CCCC1; mXylylene = c1cc(C[*:1])cc(C[*:2])c1; NMeCha = CN[C@@H](CC1CCCCC1)C(=O)O; cisHyp = O=C(O)[C@@H]1C[C@H](O)CN1; Hyp = O=C(O)[C@@H]1C[C@@H](O)CN1; NEtLeu = CCN[C@@H](CC(C)C)C(=O)O; NMeChg = CN[C@H](C(=O)O)C1CCCCC1; NMeI = CC[C@H](C)[C@H](NC)C(=O)O; NMeD = CN[C@@H](CC(=O)O)C(=O)O; NMeL = CN[C@@H](CC(C)C)C(=O)O; NMeV = CN[C@H](C(=O)O)C(C)C; d(β3hA) = C[C@@H](N)CC(=O)O; NMeAbu = CC[C@H](NC)C(=O)O; dPip = O=C(O)[C@H]1CCCCN1; Morpholide = C1CN(*)CCO1; NMeA = CN[C@@H](C)C(=O)O; NMeAib = CNC(C)(C)C(=O)O; Piperidide = C1CCN(*)CC1; dNMeA = CN[C@H](C)C(=O)O; Ac5c = NC1(C(=O)O)CCCC1; Aze = O=C(O)[C@@H]1CCN1; X24 = c1cncc(C*)c1; Sar = CNCC(=O)O
# System: Human pancreatic cancer cell line AsPC-1
# Test: Measurement of AsPC-1 cell growth inhibition (AsPC-1 CGI)
# Assay type: cell-based
# Details: 96 h
# Protocol: Measurement of AsPC-1 Cell Growth Inhibition (AsPC-1 CGI)
# Test compounds were serially diluted with dimethyl sulfoxide, and 200 nL was then dispensed to a U-bottom 96-well plate using Labcyte Echo. Human pancreatic cancer cell line AsPC-1 was suspended in RPMI-1640 medium supplemented with 15% fetal bovine serum to prepare a cell suspension at 1000 cells/100 μL. The cell suspension was dispensed to a plate containing a test compound at 100 μL per well and incubated at 37° C. in a 5% carbon dioxide gas incubator. 96 hours later, 80 μL of CellTiter-Glo (Promega) was added to each well and […] was measured.
row,Compound,IC50 [nM]
1,CC[C@H](C)[C@@H]1NC(=O)[C@H](C)N(C)C(=O)C[C@@H](C)NC(=O)[C@H](C2CCCC2)N(C)C(=O)C2(CCCC2)NC(=O)[C@@H]2CCCN2C(=O)[C@H](CCc2ccc(C(F)(F)F)c(Cl)c2)NC(=O)CN(C)C(=O)[C@H](Cc2ccc(C)cc2)N(C)C(=O)CN(C)C(=O)CN(C)C1=O [Compound 1485] (cyclo([Ac5c][NMeGly(cPent)][d(β3hA)][NMeA]I[Sar][Sar][NMePhe(4-Me)][Sar][hPhe(3-Cl-4-CF3)]P)),100 to 500
2,CC[C@H](C)[C@@H]1NC(=O)[C@H](CC(C)C)N(C)C(=O)C[C@@H](C(=O)N2CCCCC2)N(C)C(=O)[C@H](C2CCCCC2)N(C)C(=O)C2(CCCC2)NC(=O)[C@@H]2C[C@@H](OCc3cccnc3)CN2C(=O)[C@H](CCc2ccc(C(F)(F)F)c(Cl)c2)NC(=O)CN(C)C(=O)[C@H](CC2CCCCC2)N(C)C(=O)CN(C)C(=O)CN(C)C1=O [Compound 2121] ([NMeL]I[Sar][Sar][NMeCha][Sar][hPhe(3-Cl-4-CF3)][Hyp](X24)[Ac5c][NMeChg][NMeD]-Piperidide; lactam N-11),50 to 100
3,CC[C@H](C)[C@@H]1NC(=O)[C@H](CC(C)C)N(C)C(=O)C[C@@H](C)NC(=O)[C@H](C(C)C)N(C)C(=O)C2(CCCC2)NC(=O)[C@@H]2CCCN2C(=O)[C@H](CCc2ccc(C(F)(F)F)c(Cl)c2)NC(=O)CN(C)C(=O)[C@H](Cc2ccc(C)cc2)N(C)C(=O)[C@@H]2CCN2C(=O)[C@H](C)N(C)C1=O [Compound 1801] (cyclo([Ac5c][NMeV][d(β3hA)][NMeL]I[NMeA][Aze][NMePhe(4-Me)][Sar][hPhe(3-Cl-4-CF3)]P)),50 to 100
4,CC[C@H](C)[C@@H]1NC(=O)[C@H](CC(C)C)N(C)C(=O)C[C@@H](C(=O)N2CCCCC2)N(C)C(=O)[C@H](CC(C)C)N(C)C(=O)C2(CCCC2)NC(=O)[C@@H]2CCCN2C(=O)[C@H](CCc2ccc(C(F)(F)F)c(Cl)c2)NC(=O)CN(C)C(=O)[C@H](CC2CCCCC2)N(C)C(=O)[C@@H]2CCN2C(=O)[C@H](C)N(C)C1=O [Compound 1657] ([NMeL]I[NMeA][Aze][NMeCha][Sar][hPhe(3-Cl-4-CF3)]P[Ac5c][NMeL][NMeD]-Piperidide; lactam N-11),100 to 500
5,CC[C@H](C)[C@@H]1NC(=O)[C@H](CC(C)C)N(C)C(=O)C[C@@H](C)N(C)C(=O)[C@H](C(C)C)N(C)C(=O)C2(CCCC2)NC(=O)[C@@H]2CCCN2C(=O)[C@H](CCc2ccc(C(F)(F)F)c(Cl)c2)NC(=O)CN(C)C(=O)[C@H](CC2CCCCC2)N(C)C(=O)[C@@H]2CCN2C(=O)[C@H](C)N(C)C1=O [Compound 1800] (cyclo([Ac5c][NMeV][NMedβ3hAla][NMeL]I[NMeA][Aze][NMeCha][Sar][hPhe(3-Cl-4-CF3)]P)),50 to 100
6,CC[C@H](C)[C@@H]1NC(=O)[C@H](CC(C)C)N(C)C(=O)C[C@@H](C)N(C)C(=O)[C@H](C2CCCCC2)N(C)C(=O)C2(CCCC2)NC(=O)[C@@H]2CCCN2C(=O)[C@H](CCc2ccc(C(F)(F)F)c(Cl)c2)NC(=O)CN(C)C(=O)[C@H](Cc2ccc(C(F)(F)F)cc2)N(C)C(=O)[C@@H]2CCN2C(=O)[C@H](C)N(C)C1=O [Compound 348] (cyclo([Ac5c][NMeChg][NMedβ3hAla][NMeL]I[NMeA][Aze][NMePhe(4-CF3)][Sar][hPhe(3-Cl-4-CF3)]P)),100 to 500
7,CC[C@H](C)[C@@H]1NC(=O)[C@H](CC(C)C)N(CC)C(=O)C[C@@H](C(=O)N2CCOCC2)N(C)C(=O)[C@H]([C@@H](C)CC)N(C)C(=O)C2(CCCC2)NC(=O)[C@@H]2CCCN2C(=O)[C@H](CCc2ccc(C(F)(F)F)c(Cl)c2)NC(=O)CN(C)C(=O)[C@H](Cc2ccc(C(F)(F)F)cc2)N(C)C(=O)[C@@H]2CCN2C(=O)[C@H](C)NC1=O [Compound 1233] ([NEtLeu]IA[Aze][NMePhe(4-CF3)][Sar][hPhe(3-Cl-4-CF3)]P[Ac5c][NMeI][NMeD]-Morpholide; lactam N-11),50 to 100
8,"CC[C@H](C)[C@@H]1NC(=O)[C@H](CC(C)C)N(C)C(=O)C[C@@H](C(=O)N2CCCCC2)N(C)C(=O)[C@H](CC(C)C)N(C)C(=O)C2(CCCC2)NC(=O)[C@@H]2C[C@H](OCc3cccc(C)c3)CN2C(=O)[C@H](CCc2ccc(C(F)(F)F)c(F)c2)NC(=O)CN(C)C(=O)[C@H](CC2CCCCC2)N(C)C(=O)CN(C)C(=O)CN(C)C1=O [Compound 2141] ([NMeL]I[Sar][Sar][NMeCha][Sar][hPhe(3-F,4-CF3)][cisHyp](mXylylene)[Ac5c][NMeL][NMeD]-Piperidide; lactam N-11)",> 500

# Molecular target: T1, Kras and SOS1 (biotin-tagged human Kras loaded with GDP, His-tagged human SOS1) (Homo sapiens, UniProt P01116, G12D)
# T1 construct: made in house; host or cells: E. coli (stated for Kras only)
# Test: Protein-protein interaction inhibition between Kras and SOS1 (KrasGl2D-SOS PPI) using AlphaScreen
# Assay type: binding
# Details: AlphaScreen; biotin-tagged human Kras loaded with GDP, His-tagged human SOS1; read-out: KRAS G12D-SOS PPI IC50
# Summary of the method: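 Binding between SOS1 and Kras is detected as bead-proximity luminescence: illuminate Ni-conjugated donors (680 nm), collect 520-620 nm emission from streptavidin-conjugated acceptors; Kras carries biotin and GDP loaded after purification, SOS1 carries a His tag.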
# T1 sequence (P01116 1-188 isoform P01116-2 G12D): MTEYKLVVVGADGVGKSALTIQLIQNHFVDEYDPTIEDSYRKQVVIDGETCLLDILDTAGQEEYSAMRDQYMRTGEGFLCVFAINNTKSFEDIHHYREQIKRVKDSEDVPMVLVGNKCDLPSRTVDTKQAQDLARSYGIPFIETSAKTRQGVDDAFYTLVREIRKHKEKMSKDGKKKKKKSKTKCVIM
row,Compound,IC50 [nM]
1,CC[C@H](C)[C@@H]1NC(=O)[C@H](C)N(C)C(=O)C[C@@H](C)N(C)C(=O)[C@H](CC(C)C)NC(=O)C(C)(C)N(C)C(=O)[C@H](CC(C)C)NC(=O)[C@H](CCc2ccc(C(F)(F)F)c(Cl)c2)NC(=O)CN(C)C(=O)[C@H](Cc2ccc(C(F)(F)F)cc2)N(C)C(=O)[C@@H]2CCN2C(=O)[C@H](C)N(C)C1=O [Compound 1399] (cyclo([Aze][NMePhe(4-CF3)][Sar][hPhe(3-Cl-4-CF3)]L[NMeAib]L[NMedβ3hAla][NMeA]I[NMeA])),70
2,CC[C@H](C)[C@@H]1NC(=O)[C@H](CC(C)C)N(C)C(=O)C[C@@H](C(=O)N2CCCCC2)N(C)C(=O)[C@H](C2CCCCC2)N(C)C(=O)C2(CCCC2)NC(=O)[C@@H]2CCCN2C(=O)[C@H](CCc2ccc(C(F)(F)F)c(Cl)c2)NC(=O)CN(C)C(=O)[C@H](CC)N(C)C(=O)CN(C)C(=O)CN(C)C1=O [Compound 1743] ([NMeL]I[Sar][Sar][NMeAbu][Sar][hPhe(3-Cl-4-CF3)]P[Ac5c][NMeChg][NMeD]-Piperidide; lactam N-11),1.3
3,CC[C@H](C)[C@@H]1NC(=O)[C@H](C2CCCC2)N(C)C(=O)C[C@@H](C)NC(=O)[C@H](C(C)C)N(C)C(=O)C2(CCCC2)NC(=O)[C@@H]2CCCN2C(=O)[C@H](CCc2ccc(C(F)(F)F)c(Cl)c2)NC(=O)CN(C)C(=O)[C@H](CC2CCCCC2)N(C)C(=O)[C@@H]2CCN2C(=O)[C@H](C)N(C)C1=O [Compound 570] (cyclo([Ac5c][NMeV][d(β3hA)][NMeGly(cPent)]I[NMeA][Aze][NMeCha][Sar][hPhe(3-Cl-4-CF3)]P)),27
4,CC[C@H](C)[C@@H]1NC(=O)[C@H](CC(C)C)N(C)C(=O)C[C@@H](C(=O)N2CCCCC2)N(C)C(=O)[C@H](C2CCCCC2)N(C)C(=O)C2(CCCC2)NC(=O)[C@@H]2CCCN2C(=O)[C@H](CCc2ccc(C(F)(F)F)c(Cl)c2)NC(=O)CN(C)C(=O)[C@H](CC2CCCCC2)N(C)C(=O)[C@H](C)N(C)C(=O)CN(C)C1=O [Compound 1186] ([NMeL]I[Sar][NMeA][NMeCha][Sar][hPhe(3-Cl-4-CF3)]P[Ac5c][NMeChg][NMeD]-Piperidide; lactam N-11),8.6
5,CC[C@H](C)[C@@H]1NC(=O)[C@H](CC(C)C)N(C)C(=O)C[C@@H](C(=O)N(C)C)N(C)C(=O)[C@H](C2CCCC2)N(C)C(=O)C2(CCCC2)NC(=O)[C@H](Cc2ccc(C)cc2)N(C)C(=O)[C@H](CCc2ccc(C(F)(F)F)c(Cl)c2)NC(=O)CN(C)C(=O)[C@H](CC2CCCCC2)N(C)C(=O)[C@@H]2CCN2C(=O)[C@H](C)N(C)C1=O [Compound 908] ([NMeL]I[NMeA][Aze][NMeCha][Sar][hPhe(3-Cl-4-CF3)][NMePhe(4-Me)][Ac5c][NMeGly(cPent)][NMeD]-NMe2; lactam N-11),39
6,CC[C@H](C)[C@@H]1NC(=O)[C@H](C)N(C)C(=O)C[C@@H](C)NC(=O)[C@H](C(C)C)N(C)C(=O)C2(CCCC2)NC(=O)[C@@H]2CCCN2C(=O)[C@H](CCc2ccc(C(F)(F)F)c(Cl)c2)NC(=O)[C@@H](C)N(C)C(=O)[C@H](CC2CCCCC2)N(C)C(=O)CN(C)C(=O)[C@@H]2CCN2C1=O [Compound 2010] (cyclo([Ac5c][NMeV][d(β3hA)][NMeA]I[Aze][Sar][NMeCha][dNMeA][hPhe(3-Cl-4-CF3)]P)),220
7,"CC[C@H](C)[C@@H]1NC(=O)[C@H](CC(C)C)N(C)C(=O)C[C@@H](C(=O)N(C)C)N(C)C(=O)[C@H](C2CCCC2)N(C)C(=O)[C@H](CC(F)(F)F)NC(=O)[C@H](CCN2CC(F)(F)C2)N(C)C(=O)[C@H](CCc2ccc(C(F)(F)F)c(Cl)c2)NC(=O)CN(C)C(=O)[C@H](CC2CCCCC2)N(C)C(=O)[C@@H]2CCN2C(=O)[C@H](C)N(C)C1=O [Compound 104] ([NMeL]I[NMeA][Aze][NMeCha][Sar][hPhe(3-Cl-4-CF3)][NMeDab(N,N-(CH2CF2CH2))][Abu(4,4,4-F3)][NMeGly(cPent)][NMeD]-NMe2; lactam N-11)",28
8,CC[C@H](C)[C@@H]1NC(=O)[C@H](C)N(C)C(=O)C[C@@H](C(=O)N2CCCCC2)N(C)C(=O)[C@H](C(C)C)N(C)C(=O)C2(CCCC2)NC(=O)[C@@H]2CCCN2C(=O)[C@H](CCc2ccc(C(F)(F)F)c(Cl)c2)NC(=O)[C@H]2CCCCN2C(=O)[C@H](CC2CCCCC2)N(C)C(=O)[C@@H]2CCN2C(=O)[C@H](C)N(C)C1=O [Compound 349] ([NMeA]I[NMeA][Aze][NMeCha][dPip][hPhe(3-Cl-4-CF3)]P[Ac5c][NMeV][NMeD]-Piperidide; lactam N-11),190
9,CC[C@H](C)[C@@H]1NC(=O)[C@H](CC(C)C)N(C)C(=O)C[C@@H](C)NC(=O)[C@H](C(C)C)N(C)C(=O)C2(CCCC2)NC(=O)[C@@H]2CCCN2C(=O)[C@H](CCc2ccc(C(F)(F)F)c(Cl)c2)NC(=O)[C@H]2CCCN2C(=O)[C@H](CC2CCCCC2)N(C)C(=O)CN(C)C(=O)CN(C)C1=O [Compound 76] (cyclo([Ac5c][NMeV][d(β3hA)][NMeL]I[Sar][Sar][NMeCha][dP][hPhe(3-Cl-4-CF3)]P)),190
